Results as given in patent EP4759807A1, “PROTEOLYSIS TARGETING CHIMERA COMPOUND FOR DEGRADING IRAK4 AND USE THEREOF” (Shenzhen Zhongge Biological Technology Co., Ltd., priority 2023, dated 2025).

Tests used:
[1] = target: T1, hERG ion channel (Homo sapiens, UniProt Q12809); experiment: Inhibitory effect on hERG ion channels (manual patch clamp); type: cell-based; conditions: HEK293 cells stably expressing hERG channels, read-out: hERG (IC50, manupatch)
T1 construct: host or cells: HEK293
Method: In this experiment, the inhibitory effect of the compound on the hERG ion channel was detected by a manual patch clamp electrophysiological method, and the cardiac safety was evaluated based on the single concentration inhibition rate or IC50 of the compound.
The cells used in this experiment were HEK293 cell lines transfected with hERG cDNA and stably expressing hERG channels (#60187, provided by BPS, P3-P23 generations were used for experimental research). The cells was cultured in a medium containing the following components: MEM medium, 10% (v/v) inactivated fetal bovine serum, 1 mM sodium pyruvate, 500 µg geneticin, 0.1 mM non-essential amino acids, 100 U penicillin-streptomycin. HEK293 hERG cells were grown in a culture flask containing the above culture solution and cultured in an incubator at 37°C and 5% CO2. […]
A manual patch clamp system (HEKA EPC-10 signal amplifier and digital conversion system, purchased from HEKA Electronics, Germany) was used to record whole-cell currents in electrophysiological experiments. […] After the hERG current recorded in the above steps reached stabilization under the continuous perfusion of extracellular solution in the recording chamber, different concentrations of the compound to be tested could be perfused until the inhibitory effect of the drug on the hERG current reached a stable state. […]

[2] = target: T2, CYP2C9 (Homo sapiens, UniProt P11712); experiment: Inhibitory effect on human liver microsome CYP450 enzyme; type: in vitro ADME; conditions: human liver microsomes, substrate Diclofenac Sodium
T2 construct: 0.05 mg/mL liver microsomes (BioIVT, IHG) phosphate buffer solution; tissue BioIVT IHG; host or cells: human liver microsomes
Method: In this experiment, the compound, liver microsomes and different CYP isoform enzyme substrates were incubated in a 37°C water bath, the amount of substrate metabolites generated was measured, and the inhibitory effect of the compound of the present disclosure on CYP enzyme was evaluated based on the IC50 value.
i. The compound was diluted with DMSO (Aladdin, catalog number: D103273-500ml) to concentrations of 0, 0.02, 0.06, 0.2, 0.6, 2 and 6 mM. The positive reference inhibitors for each CYP isoform and their concentrations are shown in Table 4 Table 4 Positive reference inhibitors for CYP isoform enzymes and their concentrations
ii. Phosphate buffer (sigma: V900050-500G) was used to formulate the substrate solution for each CYP isoform enzyme. Table 5 The substrate and the concentration thereof for CYP isoform enzyme
iii. Sample incubation. 1 µL of each concentration of the compound and positive reference inhibitor for CYP isoform enzyme were taken and placed into a 96-deep well plate (A-gen: P-1.0-RD-96-S), and 169 µL of 0.05 mg/mL liver microsomes (BioIVT, IHG) phosphate buffer solution (using 0.2 mg/mL liver microsomes for CYP2C19) was added. After uniform mixing, the plate was placed in a 37°C water bath (Shanghai Jinghong Experimental Equipment Co., Ltd., DK-500) with shaking for pre-incubation for 15 min. 10 µL of substrate (adding 1 µL of substrate for CYP3A4-Testosterone) and 20 µL of 10 mM NADPH phosphate buffer solution (MCE, HYF003/CS-4998) were added. After uniform mixing, the plate was incubated in a water bath with shaking for the following time: CYP1A2: 20 min, CYP2C9: 10 min, CYP2C19: 10 min, CYP2D6: 10 min, CYP3A4-Testosterone: 10 min, CYP3A4-Midazolam: 5 min. 400 µL of glacial acetonitrile/methanol (v/v, 1:1) containing an internal standard (500 nM tolbutamide, 5 nM terfenadine) was added to terminate the reaction. After centrifugation at 4000 rpm at 4°C for 40 min, the supernatant was taken and diluted with pure water according to the response of the metabolite of the substrate, and then UPLC-MS/MS (Sciex, Q-Trap 4500) was used for detection to obtain the peak area. The C18 chromatographic column was Kinetex 2.6u C18 100A (50 mm*3 mm).
The inhibitory effect of the compound on each P450 enzyme in human liver microsomes was calculated as the percentage of reduced metabolite formation compared with the non-inhibitory control (i.e. blank DMSO). The IC50 value of the compound for each P450 enzyme in human liver microsomes was calculated with the logarithm of the remaining activity and the inhibitor concentration using Graphpad Prism software. The calculation equation was as follows: Peak area ratio = compound peak area / internal standard peak area [formula] [formula]
In Graphpad Prism software, the IC50 value was calculated using the standard four-parameter curve fitting algorithm.

T1 sequence (Q12809 whole entry): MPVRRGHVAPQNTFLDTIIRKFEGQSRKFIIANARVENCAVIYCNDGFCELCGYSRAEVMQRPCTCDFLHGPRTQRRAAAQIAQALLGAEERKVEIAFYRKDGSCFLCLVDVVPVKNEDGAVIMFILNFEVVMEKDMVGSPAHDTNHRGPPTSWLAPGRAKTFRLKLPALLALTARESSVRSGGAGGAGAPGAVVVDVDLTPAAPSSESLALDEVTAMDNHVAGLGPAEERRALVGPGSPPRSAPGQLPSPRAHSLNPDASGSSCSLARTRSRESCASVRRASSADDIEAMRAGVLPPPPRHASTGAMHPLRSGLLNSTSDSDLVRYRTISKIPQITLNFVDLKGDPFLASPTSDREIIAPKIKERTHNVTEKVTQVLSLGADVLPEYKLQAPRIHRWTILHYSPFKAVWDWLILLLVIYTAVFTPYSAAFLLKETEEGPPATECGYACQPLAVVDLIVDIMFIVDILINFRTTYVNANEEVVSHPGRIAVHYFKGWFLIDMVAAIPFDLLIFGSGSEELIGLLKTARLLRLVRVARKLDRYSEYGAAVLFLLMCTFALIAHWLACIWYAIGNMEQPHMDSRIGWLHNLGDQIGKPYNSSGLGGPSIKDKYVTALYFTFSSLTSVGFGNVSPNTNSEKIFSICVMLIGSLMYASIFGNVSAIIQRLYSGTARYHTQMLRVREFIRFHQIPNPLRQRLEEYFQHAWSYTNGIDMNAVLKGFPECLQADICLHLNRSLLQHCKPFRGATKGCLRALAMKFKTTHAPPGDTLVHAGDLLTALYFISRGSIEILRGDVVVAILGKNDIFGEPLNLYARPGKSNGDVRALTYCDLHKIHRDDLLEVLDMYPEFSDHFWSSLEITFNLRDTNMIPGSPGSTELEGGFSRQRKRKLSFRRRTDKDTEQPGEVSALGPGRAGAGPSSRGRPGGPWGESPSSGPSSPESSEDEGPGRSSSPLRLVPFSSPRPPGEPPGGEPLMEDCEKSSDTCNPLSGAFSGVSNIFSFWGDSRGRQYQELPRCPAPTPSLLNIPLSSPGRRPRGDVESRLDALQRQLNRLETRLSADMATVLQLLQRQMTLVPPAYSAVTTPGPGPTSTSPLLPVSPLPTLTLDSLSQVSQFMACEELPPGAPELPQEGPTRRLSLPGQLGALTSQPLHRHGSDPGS
T2 sequence (P11712 whole entry): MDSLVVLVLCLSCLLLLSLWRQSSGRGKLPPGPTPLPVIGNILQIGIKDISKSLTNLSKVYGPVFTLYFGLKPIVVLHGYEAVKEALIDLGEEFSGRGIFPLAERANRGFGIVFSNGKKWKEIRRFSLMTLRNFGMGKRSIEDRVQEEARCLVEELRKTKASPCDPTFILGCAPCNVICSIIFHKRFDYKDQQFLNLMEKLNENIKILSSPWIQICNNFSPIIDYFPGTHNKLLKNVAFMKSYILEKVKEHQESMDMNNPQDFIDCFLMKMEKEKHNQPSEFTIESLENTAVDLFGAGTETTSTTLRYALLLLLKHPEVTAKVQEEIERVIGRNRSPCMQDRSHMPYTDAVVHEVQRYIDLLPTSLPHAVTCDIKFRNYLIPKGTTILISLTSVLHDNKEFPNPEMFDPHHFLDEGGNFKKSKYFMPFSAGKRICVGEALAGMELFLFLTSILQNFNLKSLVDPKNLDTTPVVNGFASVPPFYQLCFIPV

Which results are given for Cn1c(=O)n(C2CCC(=O)NC2=O)c2cccc(N3CCC(N4CCN(C[C@H]5CC[C@H](n6cc(-n7cc(-c8cnn9ccc(N%10CCC[C@H](O)C%10)nc89)nn7)c(C(F)F)n6)CC5)CC4)CC3)c21 (some centres unmarked) [Example 146]?
IC50 [1]: 7.06 µM; IC50 [2]: > 30 µM
